In patent US20150118229A1, “JAK1 SELECTIVE INHIBITOR AND USES THEREOF” (ABBVIE INC., priority 2013, published 2015):

What was measured:
[1] = test system: adjuvant-induced arthritis (paw swelling, bone erosion); assay: Adjuvant-induced arthritis (AIA) in Lewis rats; type: in vivo
Description: The inflammation appears in the contra-lateral (left) hind paw seven days after the initial immunization. […] Rats are lightly anesthetized with an inhalant anesthetic (isoflurane) and the contra-lateral (left) hind paw is dipped into the plethysmograph and the paw volume is recorded. The rats are scored every other day up to day 17 after immunization. […] Bone volume and density is determined for a 360 μm (200 slice) vertical section encompassing the tarsal section of the paw. […] Drug exposure is determined in the plasma using LC/MS.

[2] = test system: peripheral NK cell counts; assay: Peripheral NK cell counts in healthy rats; type: in vivo, rat; conditions: rat
Excerpt: The correlation of this effect with ex vivo cytokine signaling inhibition is shown in the right panel of FIG. 6. These measurements correlated well, confirming the Jak dependency of the NK cell count endpoint.
To establish the relationship between changes in NK cell counts and nonclinical efficacy, the changes in NK cell counts were compared with decreases in rat AIA disease activity per unit exposure.

C[C@@H]1CCN(C(=O)CC#N)C[C@@H]1N(C)c1ncnc2[nH]ccc12 [Tofacitinib, reference compound]
efficacious exposure (AUC60), PK/PD modeling ([1]; AIA rats, about 60% inhibition of paw swelling): ~300 ng·h/mL
AUC60 (60% inhibition of paw swelling), total AUC0-12 ([1]; oral bid, last day of study): 392 ± 121 ng·h/mL
AUC60, fraction unbound AUC0-12 ([1]; oral bid, last day of study): 300 ± 98 ng·h/mL
Paw Swelling (exposure) ([1]; rat AIA): 514 ng·h/mL
inhibition of Paw Swelling reached at about the same level of reticulocyte inhibition ([1]; rat AIA vs reticulocyte deployment): about 60%
NK Counts (exposure) [2]: 391 ng·h/mL
NK cell count decrease at about 60% efficacy (inhibition of paw swelling) [2]: about 80%
